Data reported in patent US20060030585A1, “Tricyclic delta-opioid modulators” (priority 2004, published 2006).
Where two headings read alike, the source gives them in different places.

Experiments:
[1] = molecular target: delta opioid receptor (Rattus norvegicus, UniProt P33533); assay: Rat brain delta opioid receptor binding assay ([3H]DPDPE); conditions: Rat delta opioid receptor binding constant, rat forebrain membranes, ~4 nM [3H]DPDPE
Protocol: Rat Brain Delta Opioid Receptor Binding Assay
Procedure: Male, Sprague Dawley rats (150-250 g, VAF, Charles River, Kingston, N.Y.) were killed by CO2, and their brains removed and placed immediately in ice cold Tris HCl buffer (50 mM, pH 7.4). The forebrains were separated from the remainder of the brain by a coronal transection, beginning dorsally at the colliculi and passing ventrally through the midbrain-pontine junction. After dissection, the forebrains were homogenized in Tris buffer in a Teflon®-glass homogenizer. The homogenate was diluted to a concentration of 1 g of forebrain tissue per 80 mL Tris and centrifuged at 39,000×g for 10 min. The pellet was resuspended in the same volume of Tris buffer containing 5 mM MgCl2 with several brief pulses from a Polytron homogenizer. This particulate preparation was used for the delta opioid binding assays. Following incubation with the delta selective peptide ligand ˜4 nM [^3H]DPDPE at 25° C. for 2.5 h in a 96-well plate with total volume of 1 mL, the plate contents were filtered through Wallac filtermat B sheets on a Tomtec 96-well harvester. The filters were rinsed three times with 2 mL of 10 mM HEPES (pH 7.4), and dried in a 650 W microwave oven for 1.75 min twice. To each sample area 2×50 μL of Betaplate Scint scintillation fluid (LKB) was added and the radioactivity quantified on a LKB (Wallac) 1205 BetaPlate liquid scintillation counter.
(§1) Analysis: The data from the scintillation counter were used to calculate either the % inhibition compared to control binding (when only a single concentration of test compound was evaluated) or a Ki value (when a range of concentrations was tested). Percent inhibition was calculated as: [(total dpm-test compound dpm)/(total dpm-nonspecific dpm)]*100. Kd and Ki values were calculated using GraphPad PRISM data analysis program.

[2] = molecular target: mu opioid receptor (Rattus norvegicus, UniProt P33535); assay: Rat brain mu opioid receptor binding assay ([3H]DAMGO); conditions: Rat mu opioid receptor binding constant, rat forebrain membranes, ~0.8 nM [3H]DAMGO
Protocol: Rat Brain Mu Opioid Receptor Binding Assay
Procedure: Male, Sprague Dawley rats (150-250 g, VAF, Charles River, Kingston, N.Y.) were killed by CO2, and their brains removed and placed immediately in ice cold Tris HCl buffer (50 mM, pH 7.4). The forebrains were separated from the remainder of the brain by a coronal transection, beginning dorsally at the colliculi and passing ventrally through the midbrain-pontine junction. After dissection, the forebrains were homogenized in Tris buffer in a Teflon®-glass homogenizer. The homogenate was diluted to a concentration of 1 g of forebrain tissue per 80 mL Tris and centrifuged at 39,000×g for 10 min. The pellet was resuspended in the same volume of Tris buffer containing 5 mM MgCl2 with several brief pulses from a Polytron homogenizer. This particulate preparation was used for the delta opioid binding assays.
as §1, with “concentrations” for “concentrations was”

Chain of delta opioid receptor (P33533 whole entry): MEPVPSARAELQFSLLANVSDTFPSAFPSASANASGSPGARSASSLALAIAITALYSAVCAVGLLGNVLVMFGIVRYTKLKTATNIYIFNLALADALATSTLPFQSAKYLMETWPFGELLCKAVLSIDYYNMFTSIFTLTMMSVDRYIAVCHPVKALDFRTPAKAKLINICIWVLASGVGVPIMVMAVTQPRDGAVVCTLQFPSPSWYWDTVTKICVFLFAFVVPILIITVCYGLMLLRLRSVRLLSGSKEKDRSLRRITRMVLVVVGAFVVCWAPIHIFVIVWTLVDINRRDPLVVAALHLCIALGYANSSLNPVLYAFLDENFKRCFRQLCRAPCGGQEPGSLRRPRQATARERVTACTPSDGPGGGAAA
Chain of mu opioid receptor (P33535 whole entry): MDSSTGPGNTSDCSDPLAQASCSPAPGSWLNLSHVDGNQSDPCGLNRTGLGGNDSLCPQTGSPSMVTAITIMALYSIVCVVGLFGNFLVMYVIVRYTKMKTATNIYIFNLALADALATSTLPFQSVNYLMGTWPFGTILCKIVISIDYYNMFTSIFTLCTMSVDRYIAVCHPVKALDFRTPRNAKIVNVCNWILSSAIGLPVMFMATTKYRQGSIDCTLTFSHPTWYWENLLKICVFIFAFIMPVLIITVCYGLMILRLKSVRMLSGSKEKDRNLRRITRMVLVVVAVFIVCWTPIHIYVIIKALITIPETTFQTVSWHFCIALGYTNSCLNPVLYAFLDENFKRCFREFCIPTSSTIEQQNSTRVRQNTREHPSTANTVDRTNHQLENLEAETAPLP

Structure (SMILES) | Ki ([1]; DOR Ki) | Ki ([2]; MOR Ki) | Ki ([1]; read-out: DOR Ki) | Ki ([2]; read-out: MOR Ki)
CC(=O)Nc1ccc(-c2ccc3c(c2)Oc2ccccc2C3=C2CC3CCC(C2)N3)cc1 [Cpd 30] | 139 nM | 2740 nM |  | 
CCN(CC)C(=N)c1ccc2c(c1)Oc1ccccc1C2=C1CC2CCC(C1)N2 [Cpd 9, 9-(8-Aza-bicyclo[3.2.1]oct-3-ylidene)-N,N-diethyl-9H-xanthene-3-carboxamidine] | 14 nM | 3540 nM |  | 
c1ccc2c(c1)Oc1cc(-c3ccncc3)ccc1C2=C1CC2CCC(C1)N2 [Cpd 29] | 133 nM | 1820 nM |  | 
N#Cc1ccc2c(c1)Oc1ccccc1C2=C1CC2CCC(C1)N2 [Cpd 77] |  |  | 2710 nM | 2480 nM
CN(Cc1ccccc1)C(=O)c1ccc2c(c1)Oc1ccccc1C2=C1CC2CCC(C1)N2 [Cpd 52] | 2730 nM | 1830 nM |  | 
CC(=O)Nc1ccccc1-c1ccc2c(c1)Sc1ccccc1C2=C1CC2CCC(C1)N2Cc1ncc[nH]1 [Cpd 119] |  |  | 142 nM | 349 nM
O=C(N1C2CCC1CC(=C1c3ccccc3Oc3cc(-c4cccnc4)ccc31)C2)C(F)(F)F [Cpd 128] |  |  | > 10000 nM | > 10000 nM
Nc1ccccc1-c1ccc2c(c1)Oc1ccccc1C2=C1CC2CCC(C1)N2 [Cpd 25] | 77.4 nM | 1660 nM |  | 
CC(C)CN(CC(C)C)C(=N)c1ccc2c(c1)Oc1ccccc1C2=C1CC2CCC(C1)N2 [Cpd 28] | 107 nM | 3100 nM |  | 
CN(C)C(=O)CN(C)C(=O)c1ccc2c(c1)Oc1ccccc1C2=C1CC2CCC(C1)N2 [Cpd 68] |  |  | 8.5 nM | 2390 nM
CC(=O)Nc1cccc(-c2ccc3c(c2)Oc2ccccc2C3=C2CC3CCC(C2)N3)c1 [Cpd 20] | 46.6 nM | 2800 nM |  | 
Cn1ccc(-c2ccc3c(c2)Oc2ccccc2C3=C2CC3CCC(C2)N3)n1 [Cpd 111] | 220 nM | 2640 nM |  | 
c1cncc(-c2ccc3c(c2)Sc2ccccc2C3=C2CC3CCC(C2)N3Cc2ccoc2)c1 [Cpd 116, 8-Furan-3-ylmethyl-3-(3-pyridin-3-yl-thioxanthen-9-ylidene)-8-aza-bicyclo[3.2.1]octane] | 93 nM |  |  | 113 nM
CC(C)(C)OC(=O)N1C2CCC1CC(=C1c3ccccc3Oc3cc(C(=O)NCCO)ccc31)C2 [Cpd 122] |  |  | > 10000 nM | > 10000 nM
O=C(Nc1ccccc1)c1ccc2c(c1)Oc1ccccc1C2=C1CC2CCC(C1)N2 [Cpd 47] | 813 nM | 1200 nM |  | 
CC(C)NC(=N)c1ccc2c(c1)Oc1ccccc1C2=C1CC2CCC(C1)N2 [Cpd 39] | 441 nM | 5170 nM |  | 
O=C(NC1CCC(c2ccccc2)CC1)c1ccc2c(c1)Oc1ccccc1C2=C1CC2CCC(C1)N2 (stereo not drawn) [Cpd 34] |  |  | 247 nM | 6240 nM
CC(=O)Nc1ccccc1-c1ccc2c(c1)Sc1ccccc1C2=C1CC2CCC(C1)N2 [Cpd 113] | 90 nM | 1520 nM |  | 
Cc1nnc(-c2ccc3c(c2)Oc2ccccc2C3=C2CC3CCC(C2)N3)[nH]1 [Cpd 35, 3-[3-(5-Methyl-4H-[1,2,4]triazol-3-yl)-xanthen-9-ylidene]-8-aza-bicyclo[3.2.1]octane] | 266 nM | 673 nM |  | 
CN(C(=O)c1ccc2c(c1)Oc1ccccc1C2=C1CC2CCC(C1)N2)c1ccccc1 [Cpd 14] | 27.1 nM | 1160 nM |  | 
Cc1nc(-c2ccc3c(c2)Oc2ccccc2C3=C2CC3CCC(C2)N3)no1 [Cpd 36, 3-[3-(5-Methyl-[1,2,4]oxadiazol-3-yl)-xanthen-9-ylidene]-8-aza-bicyclo[3.2.1]octane] | 373 nM | 3550 nM |  | 
O=C(O)c1ccc2c(c1)Oc1ccccc1C2=C1CC2CCC(C1)N2 [Cpd 72] |  |  | 216 nM | 1960 nM
CS(=O)(=O)Nc1cccc(-c2ccc3c(c2)Oc2ccccc2C3=C2CC3CCC(C2)N3)c1 [Cpd 63] | 161 nM | 5120 nM |  | 

Structure (SMILES) | Ki ([1]; DOR Ki) | Ki ([2]; MOR Ki) | Ki ([1]; read-out: DOR Ki) | Ki ([2]; read-out: MOR Ki)
COc1cccc(-c2ccc3c(c2)Oc2ccccc2C3=C2CC3CCC(C2)N3)c1 [Cpd 57] | 6960 nM | 19700 nM |  | 
COc1ccccc1-c1ccc2c(c1)Oc1ccccc1C2=C1CC2CCC(C1)N2 [Cpd 44] | 659 nM | 7580 nM |  | 
O=C(N1C2CCC1CC(=C1c3ccccc3Oc3cc(-c4cccnc4)ccc31)C2)C(F)(F)F [Cpd 129] |  |  | > 10000 nM | > 10000 nM
CS(=O)(=O)c1ccc(-c2ccc3c(c2)Oc2ccccc2C3=C2CC3CCC(C2)N3)cc1 [Cpd 53] | 3140 nM | 3290 nM |  | 
O=c1[nH]c(-c2ccc3c(c2)Oc2c(O)cccc2C3=C2CC3CCC(C2)N3)no1 [Cpd 134, 3-[9-(8-Aza-bicyclo[3.2.1]oct-3-ylidene)-5-hydroxy-9H-xanthen-3-yl]-4H-[1,2,4]oxadiazol-5-one] | 0.12 nM | 2 nM |  | 
CC(=O)Nc1ccccc1-c1ccc2c(c1)Sc1ccccc1C2=C1CC2CCC(C1)N2C [Cpd 118] |  |  | 612 nM | 2070 nM
c1cncc(-c2ccc3c(c2)Sc2ccccc2C3=C2CC3CCC(C2)N3Cc2ncc[nH]2)c1 [Cpd 115] | 91 nM | 60 nM |  | 
N=C(c1ccc2c(c1)Oc1ccccc1C2=C1CC2CCC(C1)N2)N1CCOCC1 [Cpd 50] | 1760 nM | 14900 nM |  | 
O=C(NC1CCC(C(F)(F)F)CC1)c1ccc2c(c1)Oc1ccccc1C2=C1CC2CCC(C1)N2 (stereo not drawn) [Cpd 62] |  |  | 309 nM | 7400 nM
CCOC(=O)N1C2CCC1CC(=C1c3ccccc3Oc3cc(C(=O)N(C)CCO)ccc31)C2 [Cpd 75] |  |  | 4470 nM | 10000 nM
CC(=O)Nc1ccccc1-c1ccc2c(c1)Sc1ccccc1C2=C1CC2CCC(C1)N2Cc1ccccn1 [Cpd 121] | 3.7 nM |  |  | 137 nM
c1ccc(CN2C3CCC2CC(=C2c4ccccc4Sc4cc(-c5cccnc5)ccc42)C3)nc1 [Cpd 117] | 95 nM | 97 nM |  | 
c1ccc2c(c1)Sc1cc(-c3nnn[nH]3)ccc1C2=C1C[C@H]2CC[C@@H](C1)N2 (single isomer, unassigned) [Cpd 102, (1RS,5SR)-3-[3-(1H-Tetrazol-5-yl)-thioxanthen-9-ylidene]-8-aza-bicyclo[3.2.1]octane] | 54 nM | 2770 nM |  | 
CC(C)(CO)NC(=O)c1ccc2c(c1)Oc1ccccc1C2=C1CC2CCC(C1)N2 [Cpd 97] |  |  | 266 nM | 1900 nM
COC(=O)c1ccc2c(c1)Oc1ccccc1C2=C1CC2CCC(C1)N2 [Cpd 73] |  |  | 1010 nM | 6340 nM
CN1C2CCC1CC(=C1c3ccccc3Sc3cc(-c4cccnc4)ccc31)C2 [Cpd 114] | 108 nM | 109 nM |  | 
COC(=O)c1ccc2c(c1)Oc1cc(C(=O)OC)ccc1C2=C1CC2CCC(C1)N2 [Cpd 78, 9-(8-Aza-bicyclo[3.2.1]oct-3-ylidene)-9H-xanthene-3,6-dicarboxylic acid dimethyl ester] | 1150 nM | 7000 nM |  | 
CC(=O)Nc1ccccc1-c1ccc2c(c1)Oc1ccccc1C2=C1CC2CCC(C1)N2C(=O)C(F)(F)F [Cpd 131] |  |  | > 10000 nM | > 10000 nM
COc1cccc2c1Oc1cc(-c3ccncc3)ccc1C2=C1CC2CCC(C1)N2 [Cpd 107] |  |  | 106 nM | 597 nM
CC(C)C[C@H](CO)NC(=O)c1ccc2c(c1)Oc1ccccc1C2=C1CC2CCC(C1)N2 [Cpd 67] | 360 nM | 1570 nM |  | 
O=C(NCC(F)(F)F)c1ccc2c(c1)Oc1ccccc1C2=C1CC2CCC(C1)N2 [Cpd 64] | 52 nM | 411 nM |  | 
O=C(NCCO)c1ccc2c(c1)Oc1ccccc1C2=C1CC2CCC(C1)N2 [Cpd 123] |  |  | 106 nM | 1020 nM
